Patent publication US20250295639A1, “METHODS FOR TREATING HEART DISEASES” (Cytokinetics, Incorporated, priority 2024, published 2025)
“And” between values parts separate entries of the source, which are not always exact repeats. Identical values can stand only once.

Test system: patients with symptomatic oHCM
Assay: SEQUOIA-HCM: cardiopulmonary exercise testing (CPET), incl. by baseline beta blocker use
Format: in vivo, human
Text: The primary objective of this trial was to evaluate the effect of aficamten on exercise capacity in patients with symptomatic oHCM. The indicated endpoint was a change in peak oxygen uptake (pVO2) by cardiopulmonary exercise testing (CPET) from baseline to Week 24. A further secondary objective was to evaluate the effect of aficamten on exercise capacity, as determined by change in total workload during CPET from baseline to Week 24. A further exploratory objective of this trial was to evaluate the effect of aficamten on other CPET parameters, as determined by changes from baseline to Week 24 in: (1) ventilator efficiency (VE/VCO2 slope); (2) circulatory power (VO2× systolic BP); and (3) ventilator anaerobic threshold (VAT). Cardiopulmonary Exercise Testing (CPET). All patients underwent CPET with gas-exchange analysis and the methodology will be standardized across all participating sites, as described in the CPET manual. Testing included continuous ECG monitoring by trained personnel and was performed in an area that was equipped for cardiopulmonary resuscitation. Treadmill was the preferred modality for exercise testing. […] Exercise protocols for both modalities were provided in the CPET manual. Patients had to use the same testing modality for all exercise tests during the trial. Whenever possible, CPET was administered by the same trial personnel using the same equipment and performed after the other trial procedures on that visit day (including echocardiogram, KCCQ, EQ-5D-5L, CGI, PGI-C, NYHA class, SAQ-7, vital signs, ECG, blood sampling, IP administration). Patients naïve to exercise protocols were familiarized with the technique during screening. All CPET testing was symptom-limited and patients were strongly encouraged to achieve maximal exertion and an RER ≥1.05. The reason(s) for termination of sub-maximal exercise tests were documented. A test was identified as being maximal effort if the RER is ≥1.05. The Week 24 CPET was performed at approximately the same time of day (eg, morning, mid-day, afternoon) as the baseline CPET at screening, at a consistent time after the last dose of beta blocker and IP. Whenever possible, patients performed exercise testing between three and ten hours after taking beta blocking agents. CPET End Points. We looked at whether aficamten would improve a novel measure of integrated exercise performance that combines complementary measures previously independently related to oHCM prognosis, and that incorporates both submaximal and maximal exercise capacity. A primary outcome was the change from baseline to week 24 in integrated exercise performance, defined as the 2-component Z-score of pVO2 and ventilatory efficiency (VE/VCO2 slope). Response rates for achieving clinically meaningful thresholds for change in pVO2 and correlations with clinical measures of treatment effect (health status, echocardiographic, cardiac biomarkers) were also assessed. The primary analysis was the change from baseline to Week 24 in integrated exercise performance, normalized to a composite of Z-scores for pVO2 and VE/VCO2 slope to capture physiologic responses to maximal and submaximal exercise. The Z-score was derived by reversing the directionality of VE/VCO2 slope such that increases in both Z-score components indicate benefit and equal weights were used for each Z-score component. Secondary end points included assessments for changes from baseline to week 24 in CPET-derived measures during 2 phases of exercise performance: (1) peak exercise (pVO2, peak workload, peak metabolic equivalents [METS], peak circulatory power [VO2× systolic blood pressure], exercise duration, peak respiratory exchange ratio [RER], heart rate reserve, peak heart rate, O2 pulse at peak exercise, proportionate pulse pressure); and (2) during submaximal exercise (pre-anaerobic threshold VE/VCO2 slope, VE/VCO2 slope throughout exercise, ventilatory power, ventilatory anaerobic threshold, and aerobic efficiency). Beta Blocker Co-administration. […]

[1] = Aficamten arm, change baseline to week 24
[2] = Baseline Beta Blocker Use: No, Week 24
[3] = Baseline Beta Blocker Use: Yes, Week 24
[4] = aficamten versus placebo, 24 weeks
[5] = patients treated with aficamten

## CCc1nc(-c2ccc3c(c2)CC[C@H]3NC(=O)c2cnn(C)c2)no1 [aficamten, (R)—N-(5-(5-ethyl-1,2,4-oxadiazol-3-yl)-2,3-dihydro-1H-inden-1-yl)-1-methyl-1H-pyrazole-4-carboxamide]
Aficamten arm, Week 24
  Aerobic efficiency: 8.6 mL/min/watt
  Exercise duration: 12.4 min
  Heart rate reserve: 66
  Integrated 2 component Z-score metric: 0.16
  Peak circulatory power: 3550 mmHg*mL/min/kg
  Peak heart rate: 135 beats/min
  Peak respiratory exchange ratio: 1.20
  Peak workload: 134 watt
  Proportionate pulse pressure (peak): 0.51
  Proportionate pulse pressure (rest): 0.37
  Ventilatory anaerobic threshold: 958 mL
  Ventilatory efficiency pre-anaerobic threshold (VE/VCO2 slope): 27.4
  Ventilatory efficiency throughout exercise (VE/VCO2 slope): 30.9
  Ventilatory power: 5.9 mmHg
  pVO2: 20.2 mL/kg/min
[1]
  Aerobic efficiency, Abs. diff.: 0.3 mL/min/watt
  Exercise duration, Abs. diff.: 1.2 min
  Heart rate reserve, Abs. diff.: 7
  Integrated 2 component Z-score metric, Abs. diff.: +0.17±0.51
  O2 pulse at peak exercise, Abs. diff.: 0.00 mL/beat
  Peak circulatory power, Abs. diff.: 537 mmHg*mL/min/kg
  Peak heart rate, Abs. diff.: 8 beats/min
  Peak respiratory exchange ratio, Abs. diff.: 0.01
  Peak workload, Abs. diff.: 14 watt
  Proportionate pulse pressure (peak), Abs. diff.: 0.02
  Proportionate pulse pressure (rest), Abs. diff.: −0.02
  Ventilatory anaerobic threshold, Abs. diff.: 60 mL
  Ventilatory efficiency pre-anaerobic threshold (VE/VCO2 slope), Abs. diff.: −1.9
  Ventilatory efficiency throughout exercise (VE/VCO2 slope), Abs. diff.: −2.2
  Ventilatory power, Abs. diff.: 0.8 mmHg
  pVO2, Abs. diff.: 1.8 mL/kg/min
Aficamten arm, change baseline to week 24, listed as Aficamten
  Integrated 2 component Z-score metric, Abs. diff.: 0.17
Aficamten, 24 weeks
  patients with Any Deterioration (small/moderate/large) in pVO2: (26.1%)
  patients with Any Deterioration (small/moderate/large) in pVO2, number: 37
  patients with Any Improvement (small/moderate/large) in pVO2: (73.9%)
  patients with Any Improvement (small/moderate/large) in pVO2, number: 105
  patients with Large Improvement in pVO2 (≥3.0 mL/kg/min): 32%
  patients with Large Improvement in pVO2 (≥3.0 mL/kg/min), number: 46
  patients with Moderate/Large Improvement in pVO2 (≥1.5 mL/kg/min): (52.8%)
  patients with Moderate/Large Improvement in pVO2 (≥1.5 mL/kg/min), number: 75
Aficamten, 24 weeks, listed as Aficamten
  patients with Large Improvement in pVO2 (≥3.0 mL/kg/min): (32.4%)
Baseline Beta Blocker Use: No
  Change in Exercise Duration on CPET from Baseline to Week 24, LS Mean (SE): 1.2 (0.26) minutes
  Change in Exercise Duration on CPET from Baseline to Week 24, LS Mean Diff vs. Placebo (SE): 1.1 (0.38) minutes
  Change in Exercise Duration on CPET from Baseline to Week 24, Mean (SD): 1.3 (2.34) minutes
  Change in Exercise Duration on CPET from Baseline to Week 24, Median: 1.1 min
  Change in peak METs from Baseline to Week 24, LS Mean (SE): 0.62 (0.113) METs
  Change in peak METs from Baseline to Week 24, LS Mean Diff vs. Placebo (SE): 0.55 (0.162) METs
  Change in peak METs from Baseline to Week 24, Mean (SD): 0.65 (1.029) METs
  Change in peak METs from Baseline to Week 24, Median: 0.47 METs
  Exercise Duration on CPET, Baseline, Mean (SD): 11.0 (3.52) minutes
  Exercise Duration on CPET, Baseline, Median: 10.3 min
  peak METs (pVO2/3.5 (mL/kg/min)) on CPET, Baseline, Mean (SD): 5.27 (1.314) METs
  peak METs (pVO2/3.5 (mL/kg/min)) on CPET, Baseline, Median: 5.11 METs
[2]
  Exercise Duration on CPET, Week 24, Mean (SD): 12.2 (4.39) minutes
  Exercise Duration on CPET, Week 24, Median: 11.3 min
  peak METs (pVO2/3.5 (mL/kg/min)) on CPET, Week 24, Mean (SD): 5.89 (1.481) METs
  peak METs (pVO2/3.5 (mL/kg/min)) on CPET, Week 24, Median: 5.66 METs
Baseline Beta Blocker Use: Yes
  Change in Exercise Duration on CPET from Baseline to Week 24, LS Mean (SE): 1.0 (0.22) minutes
  Change in Exercise Duration on CPET from Baseline to Week 24, LS Mean Diff vs. Placebo (SE): 0.9 (0.30) minutes
  Change in Exercise Duration on CPET from Baseline to Week 24, Mean (SD): 1.1 (1.98) minutes
  Change in Exercise Duration on CPET from Baseline to Week 24, Median: 0.5 min
  Change in peak METs from Baseline to Week 24, LS Mean (SE): 0.40 (0.093) METs
  Change in peak METs from Baseline to Week 24, LS Mean Diff vs. Placebo (SE): 0.46 (0.130) METs
  Change in peak METs from Baseline to Week 24, Mean (SD): 0.41 (0.781) METs
  Change in peak METs from Baseline to Week 24, Median: 0.31 METs
  Exercise Duration on CPET, Baseline, Mean (SD): 11.4 (2.55) minutes
  Exercise Duration on CPET, Baseline, Median: 11.1 min
  peak METs (pVO2/3.5 (mL/kg/min)) on CPET, Baseline, Mean (SD): 5.24 (1.251) METs
  peak METs (pVO2/3.5 (mL/kg/min)) on CPET, Baseline, Median: 5.28 METs
[3]
  Exercise Duration on CPET, Week 24, Mean (SD): 12.5 (3.61) minutes
  Exercise Duration on CPET, Week 24, Median: 12.4 min
  peak METs (pVO2/3.5 (mL/kg/min)) on CPET, Week 24, Mean (SD): 5.70 (1.497) METs
  peak METs (pVO2/3.5 (mL/kg/min)) on CPET, Week 24, Median: 5.64 METs
Aficamten group, 24 weeks
  patients with large pVO2 deteriorations/reductions (≥3.0 mL/kg/min): 2%
[4]
  Any Deterioration in pVO2, NNT: −3.8
  Any Deterioration in pVO2, OR: 0.32
  Any Deterioration in pVO2, Risk Difference: −26%
  Any Improvement in pVO2, NNT: 3.8 and < 4
  Any Improvement in pVO2, OR: 3.09
  Any Improvement in pVO2, Risk Difference: +26%
  Large Improvement in pVO2, NNT: 6.3
  Large Improvement in pVO2, OR: 2.44
  Large Improvement in pVO2, Risk Difference: +15.%
  Moderate/Large Improvement in pVO2, NNT: 4.7
  Moderate/Large Improvement in pVO2, OR: 2.44
  Moderate/Large Improvement in pVO2, Risk Difference: +21%
Aficamten versus placebo, 24 weeks, listed as Aficamten
  Any Improvement in pVO2, NNT: 3.8
Aficamten vs placebo, week 24
  Aerobic efficiency, Adjusted difference (LS mean treatment difference): 0.2 mL/min/watt
  Exercise duration, Adjusted difference (LS mean treatment difference): 1.0 min
  Heart rate reserve, Adjusted difference (LS mean treatment difference): 6
  Integrated 2 component Z-score metric, Adjusted difference (LS mean treatment difference): +0.35
  O2 pulse at peak exercise, Adjusted difference (LS mean treatment difference): 0.003 mL/beat
  Peak circulatory power, Adjusted difference (LS mean treatment difference): 586 mmHg*mL/min/kg
  Peak heart rate, Adjusted difference (LS mean treatment difference): 9 beats/min
  Peak respiratory exchange ratio, Adjusted difference (LS mean treatment difference): 0.00
  Peak workload, Adjusted difference (LS mean treatment difference): 12 watt
  Proportionate pulse pressure (peak), Adjusted difference (LS mean treatment difference): 0.01
  Proportionate pulse pressure (rest), Adjusted difference (LS mean treatment difference): −0.01
  Ventilatory anaerobic threshold, Adjusted difference (LS mean treatment difference): 59 mL
  Ventilatory efficiency pre-anaerobic threshold (VE/VCO2 slope), Adjusted difference (LS mean treatment difference): −1.5
  Ventilatory efficiency throughout exercise (VE/VCO2 slope), Adjusted difference (LS mean treatment difference): −2.3
  Ventilatory power, Adjusted difference (LS mean treatment difference): 0.9 mmHg
  pVO2, Adjusted difference (LS mean treatment difference): 1.7 mL/kg/min
Aficamten vs placebo, week 24, listed as Aficamten
  Integrated 2 component Z-score metric, Adjusted difference (LS mean treatment difference): 0.35
Baseline to Week 24
  improvement in Exercise Duration on CPET: influence of beta blockers: not significantly diminished by the use of beta blockers
  improvement in peak metabolic equivalents (peak METs) on CPET: influence of beta blockers: not significantly diminished by the use of beta blockers
Categorical threshold analyses
  times less likely to experience worsening of pVO2 than those on placebo: more than 5 times
[5]
  patients who experienced an improvement in pVO2: 72.2%
  patients with large improvement (≥3.0 mL/kg/min) in pVO2: 27.8%
  patients with moderate improvement (≥1.5 to <3.0 mL/kg/min) in pVO2: 21.8%
  patients with small improvement (0 to <1.5) in pVO2: 22.6%
Patients who were also on beta blockers
  LSM difference in pVO2 (95% CI): 1.6 (0.7 to 2.5) mL/kg/min
Patients who were not on beta blockers
  LSM difference in pVO2 (95% CI): 1.9 (0.8 to 3.1) mL/kg/min
